We go through 10 molecules from patent US11273146B2, “Benzofuran derivatives and their use as bromodomain inhibitors” (GLAXOSMITHKLINE INTELLECTUAL PROPERTY (NO. 2) LIMITED, priority 2017, dated 2022).

One assay has as its target T1, BRD4 BD2 (Homo sapiens, UniProt O60885, Y97A).
T1 construct: BRD4 (1-477) (Y97A) and (Y390A); made in house; host or cells: E. coli (pET15b vector)
Put plainly: TR-FRET competition assay, BRD4 BD2. The format is binding. The settings on record: single mutant tandem BRD4, read-out: pIC50 in the BRD4 BD2 assay (converted). On the procedure: Bromodomain binding was assessed utilising a time resolved fluorescent resonance energy transfer (TR-FRET) competition assay. To enable this approach a known, high affinity, pan-BET interacting small molecule was labelled with Alexa Fluor® 647, which is a far-red-fluorescent dye (Reference Compound X). Reference Compound X acts as a reporter of bromodomain binding and is the acceptor fluorophore component of the TR-FRET pair. Europium chelate, conjugated to an anti-6*His antibody, was utilised as the donor fluorophore in the TR-FRET pair. […] A TR-FRET signal is generated when the donor and acceptor fluorophores are in close proximity, between 20-80 Å, which is enabled in this assay by binding of Reference Compound X to the bromodomain protein.
If the acceptor fluorophore is in close proximity then energy transfer can occur, which leads to emission of Alexa Fluor® 647 at λ665 nm. In the presence of competitor compound, Reference Compound X can be displaced from binding to the bromodomain. If displacement occurs, the acceptor fluorophore is no longer in proximity to the donor fluorophore, which prevents fluorescent energy transfer and, subsequently, a loss of Alexa Fluor® 647 emission at λ665 nm.
The competition of the compounds of formula (I) with Reference Compound X for binding to the BET family (BRD2, BRD3, BRD4 and BRDT) was assessed using protein truncates spanning both bromodomain 1 (BD1) and bromodomain 2 (BD2). In order to monitor differential binding to either BD1 or BD2, single residue mutations of key tyrosines to alanine were made in the acetyl lysine binding pockets. To validate this approach, a double residue mutant tandem domain protein was produced for each of the BET family members. Utilising a Fluorescence Polarisation approach, binding affinities for each of the single and double mutants for Reference Compound X were determined. […] Final purification was completed by Superdex 200 prep grade size exclusion column. Purified protein was stored at −80° C. in 20 mM HEPES pH 7.5 and 100 mM NaCl.
Protocol for Bromodomain BRD2, 3, 4 and T, BD1+BD2 mutant TR-FRET competition assays: All assay components were dissolved in an assay buffer composing of 50 mM HEPES pH7.4, 50 mM NaCl, 5% Glycerol, 1 mM DTT and 1 mM CHAPS. Reference Compound X was diluted, in assay buffer containing 20 nM single mutant, tandem bromodomain protein, to a concentration equivalent to 2*Kd for this bromodomain. The solution containing bromodomain and Reference Compound X was added to dose response dilutions of test compound or DMSO vehicle (a maximum of 0.5% DMSO is used in this assay) in Greiner 384 well black low volume microtitre plates and subsequently incubated for 30 minutes at room temperature. An equal volume of 3 nM of anti-6*His Europium chelate was added to all wells, followed by a further 30 minute incubation at room temperature. TR-FRET was detected using a Perkin Elmer Multimode plate reader, by exciting the donor fluorophore at λ337 nm and subsequently, after a delay of 50 μsecs, measuring emission of the donor and acceptor fluorophores at λ615 nm and λ665 nm, respectively. In order to control these assays, 16 replicates each of uninhibited (DMSO vehicle) and inhibited (10*IC50 concentrations of Example 11 of WO 2011/054846A1) TR-FRET assays were included on every microtitre plate.
Background: Time-resolved FRET reads energy transfer from a long-lived donor to a nearby acceptor.

Assay [1] concerns BET family (BRD2, BRD3, BRD4 and BRDT) tandem bromodomain proteins. The assay is described as follows: Fluorescence Polarisation binding of Reference Compound X to mutant tandem BET proteins. Details: species or system Human. As for the experimental part:
The competition of the compounds of formula (I) with Reference Compound X for binding to the BET family (BRD2, BRD3, BRD4 and BRDT) was assessed using protein truncates spanning both bromodomain 1 (BD1) and bromodomain 2 (BD2). In order to monitor differential binding to either BD1 or BD2, single residue mutations of key tyrosines to alanine were made in the acetyl lysine binding pockets. To validate this approach, a double residue mutant tandem domain protein was produced for each of the BET family members. Utilising a Fluorescence Polarisation approach, binding affinities for each of the single and double mutants for Reference Compound X were determined. […] The affinities of the single mutated bromdomain tandem proteins for Reference Compound X were equi-potent with the corresponding non-mutated BET protein. […] Final purification was completed by Superdex 200 prep grade size exclusion column. Purified protein was stored at −80° C. in 20 mM HEPES pH 7.5 and 100 mM NaCl. Protein identity was confirmed by peptide mass fingerprinting and predicted molecular weight confirmed by mass spectrometry.

For the molecule `CNC(=O)c1cc(C(=O)N[C@H]2[C@@H]3COC[C@@H]32)cc2c1OC[C@@H]2c1ccc(OCCN)cc1` (single isomer, unassigned) [Example 111, (R*)-3-(4-(2-aminoethoxy)phenyl)-N^5-((1R,5S,6r)-3-oxabicyclo[3.1.0]hexan-6-yl)-N^7-methyl-2,3-dihydrobenzofuran-5,7-dicarboxamide], on BRD4 BD2, the IC50 was 1 to 100 µM.

As for `CCNC(=O)c1cc(C(=O)NC)c2c(c1)C(c1cccc(C(=O)OCC)c1)CO2` (single isomer, unassigned) [Example 113, (R*)-ethyl 3-(5-(ethylcarbamoyl)-7-(methylcarbamoyl)-2,3-dihydrobenzofuran-3-yl)benzoate], the IC50 on BRD4 BD2 was 1 to 100 µM.

`CNC(=O)c1cc(C(=O)NCCc2cnn(C)c2)cc2c1OCC2c1ccc(F)cc1` (single isomer, unassigned) [Example 119, (R*)-3-(4-fluorophenyl)-N^7-methyl-N^5-(2-(1-methyl-1H-pyrazol-4-yl)ethyl)-2,3-dihydrobenzofuran-5,7-dicarboxamide]: the IC50 on BRD4 BD2 is 1 to 100 µM.

For `CNC(=O)c1cc(C(=O)NC2CC2)cc2c1OCC2C1CCOCC1` (single isomer, unassigned) [Example 120, (R*)-N^5-cyclopropyl-N^7-methyl-3-(tetrahydro-2H-pyran-4-yl)-2,3-dihydrobenzofuran-5,7-dicarboxamide], on BRD4 BD2, the IC50 was 1 to 100 µM.

On to `CNC(=O)c1cc(C(=O)N[C@H]2C[C@@H]2C)cc2c1OCC2C1CCOCC1` (single isomer, unassigned) [Example 121, (R*)-N^7-methyl-N^5-((1S,2S)-2-methylcyclopropyl)-3-(tetrahydro-2H-pyran-4-yl)-2,3-dihydrobenzofuran-5,7-dicarboxamide], for which the IC50 at BRD4 BD2 is 1 to 100 µM.

With `CNC(=O)c1cc(C(=O)NC2CC2)cc2c1OCC2C1CCOCC1` (centres unmarked) [Example 104, N^5-cyclopropyl-N^7-methyl-3-(tetrahydro-2H-pyran-4-yl)-2,3-dihydrobenzofuran-5,7-dicarboxamide], the IC50 at BRD4 BD2 was 1 to 100 µM.

For `CNC(=O)c1cc(C(=O)NCCn2cnnc2)cc2c1OCC2c1ccccc1` (centres unmarked) [Example 110, N^5-(2-(4H-1,2,4-triazol-4-yl)ethyl)-N^7-methyl-3-phenyl-2,3-dihydrobenzofuran-5,7-dicarboxamide], the IC50 on BRD4 BD2 is 1 to 100 µM.

In the case of `CNC(=O)c1cc(C(=O)Nc2nccn2C)cc2c1OCC2c1ccccc1` (centres unmarked) [Example 118, N^7-methyl-N^5-(1-methyl-1H-imidazol-2-yl)-3-phenyl-2,3-dihydrobenzofuran-5,7-dicarboxamide], the IC50 on BRD4 BD2 was 1 to 100 µM.

Regarding `CNC(=O)c1cc(C(=O)Nc2nnn(C)n2)cc2c1OC[C@H]2c1ccccc1` [Example 123, (S)-N^7-methyl-N^5-(2-methyl-2H-tetrazol-5-yl)-3-phenyl-2,3-dihydrobenzofuran-5,7-dicarboxamide], on BRD4 BD2, the IC50 was 1 to 100 µM.

With `COc1ccc2c(c1)C(c1ccc(Cl)cc1)=N[C@@H](CC(=O)NCCCCCNC(=O)CCCCCC1(C)/C(=C/C=C/C=C/C3=[N+](CCCCS(=O)(=O)O)c4ccc(S(=O)(=O)O)cc4C3(C)C)N(CCCCS(=O)(=O)[O-])c3ccc(S(=O)(=O)O)cc31)c1nnc(C)n1-2` (some centres unmarked) [Reference Compound X], in assay [1] (double residue (Tyr to Ala) mutant tandem domain proteins), the “reduction in Kd (affinity), double mutant tandem proteins versus non mutated, wild type tandem BET proteins” value is > 1000 fold. Moreover, in assay [1] (single mutated tandem proteins), the “affinities of the single mutated bromodomain tandem proteins versus the corresponding non-mutated BET protein” value is “equi-potent”.
